This is an account of results in paper PMC10297291 (2023).

Assay [1] deals with G4 (DNA, G4) AGGGTTAGGGTTAGGGTTAGGG
The assay is described as follows: thiazole orange displacement (G4-FID), fluorescence. The conditions noted are these: 10 mM K+, 90 mM Li+, 10 mM lithium cacodylate pH 7.2, 1 µM TO displaced, 0.25 µM DNA, 3 min equilibration.

Assay [2] relates to ds26 (DNA, duplex) CAATCGGATCGAATTCGATCCGATTG
Described as above. The settings on record: 10 mM K+, 90 mM Li+, 10 mM lithium cacodylate pH 7.2, 1 µM TO displaced, 0.25 µM DNA, 3 min equilibration.

Assay [3] concerns G4 (DNA, G4) AGGGTTAGGGTTAGGGTTAGGG
The assay is described as follows: thiazole orange displacement (G4-FID), kinetics. The settings on record: 10 mM K+, 90 mM Li+; 10 mM lithium cacodylate pH 7.2; 1 µM TO displaced, 0.25 µM DNA; resveratrol concentration not stated.

Consider `O=c1cc(-c2ccccc2)oc2cc(O)cc(O)c12`, for which the TO shift in assay [1] (highest concentrations) and in assay [2] (highest concentrations) was below 20% in each case. With `Oc1ccc(/C=C/c2cc(O)cc(O)c2)cc1`, the binding result in assay [3] was “no”. For the compound `O=c1c(O)c(-c2ccc(O)c(O)c2)oc2cc(O)cc(O)c12`, the binding entry in assay [1] (positive control) and in assay [2] (positive control) was “yes” each time.
